The test system of test [1] is human platelets (ADP-induced aggregation). Kind of test: "In vitro" aggregation on human platelets (PRP), ADP-induced. Conditions: Platelet, 0.25 h, compound 10^-4 M, 37° C., 15 minutes, 2.5 uM ADP. It is filed as cell-based. How it is done: (§1) (Born, G.V.R., Nature 194:927 (1962)).
(§2) Citrated human blood was used, from which platelet-rich plasma (PRP) was prepared. 450 ul PRP aliquots were incubated at 37° C. with the assayed compounds at a single concentration of 10^-4 M for 15 minutes. Aggregating agents (2 ug/ml collagen and 2.5 uM ADP) were added in a 50 ul volume and the aggregation was measured as optical density decrease in the platelet suspension.

The test system of test [2] is human platelets (collagen-induced aggregation). The test is described as follows: "In vitro" aggregation on human platelets (PRP), collagen-induced. Particulars: Platelet, 0.25 h, compound 10^-4 M, 37° C., 15 minutes, 2 ug/ml collagen. It is filed as cell-based. How it is done:
as §1, §2

Test [3] has as its system platelet thromboembolism in mice. Kind of test: "In vivo" thrombosis model in the mouse (collagen + epinephrine i.v.). Set-up: species or system CD-1 Charles River male mice. Particulars: suspension in 0.5% carboxymethylcellulose, one to four hours after administration, i.v. 15 ug collagen and 1.8 ug epinephrine. How it is done: (B) "IN VIVO" THROMBOSIS MODEL (DiMinno, G., Silver, M. J.; J. Pharmacol. Exptl. Ther. 225:57 (1983)).
This is a suitable method for the screening of antithrombotic agents having a primary activity on platelet thormboembolism.
CD-1 Charles River male mice weighing 30 g were used. They received and i.v. injection of 15 ug collagen and 1.8 ug epinephrine in 100 ul of isotonic solution. About the 90% of the animals died or were paralysed for more than 15 minutes.
Drugs were intraperitoneally administered as a suspension in 0.5% carboxymethylcellulose and the protecting effect thereof against thrombosis was measured one to four hours after the administration.

Test [4] relates to human platelets (ATP secretion). Kind of test: Releasing reaction (ATP secretion from activated platelets), simultaneous to collagen aggregation. It is filed as cell-based. Particulars: Platelet, 0.25 h, human PRP, compound 10^-4 M, 37° C., 15 minutes, 2 ug/ml collagen. Here is the method:
as §2

Consider `COC(=O)C1=C(C)NC(C)=C(C(=O)OCN2C(=O)c3ccccc3S2(=O)=O)C1C` (centres unmarked) [Example 4, {N-(1,2-benzisothiazolyl-3(2H)one-1,1-dioxide)} methyl 2,6-dimethyl-4-methyl-5-methoxycarbonyl-1,4-dihydropyridine-3-carboxylate], for which the inhibition (usually the share of the control response that was lost under treatment) at 100 µM in test [1] was found to be 5%; in test [2], 14%; in test [4], 19%. In addition, the Protection % in test [3] (30 mg/kg intraperitoneal) and in test [3] (60 mg/kg intraperitoneal) was 20% each time.

In the case of `CCCCC1C(C(=O)OC)=C(C)NC(C)=C1C(=O)OCCN1C(=O)c2ccccc2S1(=O)=O` (centres unmarked) [Example 6, 2-{N-(1,2-benzisothiazolyl-3(2H)one-1,1-dioxide)} ethyl 4-n-butyl-2,6-dimethyl-5-methoxycarbonyl-1,4-dihydropyridine-3-carboxylate], the values for the inhibition at 100 µM in test [1], in test [2] and in test [4] were 8%, 15% and 29%, respectively. Further, the results for the Protection % in test [3] (30 mg/kg intraperitoneal) and in test [3] (60 mg/kg intraperitoneal) were 12% and 34%, respectively.

For the compound `CC1=C(C(=O)OCCNC(=O)c2ccccc2O)C(C)C(C(=O)OCCN2C(=O)c3ccccc3S2(=O)=O)=C(C)N1` (centres unmarked) [Example 3], the figures for the inhibition at 100 µM in test [1], in test [2] and in test [4] were 15%, 24% and 18%, respectively. Besides, the Protection % in test [3] (30 mg/kg intraperitoneal) and in test [3] (60 mg/kg intraperitoneal) was 62% each time.

For the compound `OCCN(CCO)c1nc(N2CCCCC2)c2nc(N(CCO)CCO)nc(N3CCCCC3)c2n1` [DIPYRIDAMOL, reference compound], the Protection % in test [3] (30 mg/kg intraperitoneal) and in test [3] (60 mg/kg intraperitoneal) was 30% each time.

Consider `COC(=O)C1=C(C)NC(C)=C(C(=O)OCCN2C(=O)c3ccccc3S2(=O)=O)C1C` (centres unmarked) [Example 2, 2-{N-(1,2-benzisothiazolyl-3(2H)one-1,1-dioxide)} ethyl 2,6-dimethyl-4-methyl-5-methoxycarbonyl-1,4-dihydropyridine-3-carboxylate], for which the inhibition at 100 µM in test [1] was 20%; in test [2] it was 48%; in test [4], 43%. The Protection % was 0% in test [3] (30 mg/kg intraperitoneal) and 42% in test [3] (60 mg/kg intraperitoneal).

For `CCOC(=O)C1=C(C)NC(C)=C(C(=O)OCCN2C(=O)c3ccccc3S2(=O)=O)C1C` (centres unmarked) [Example 1, 2-{N-(1,2-benzisothiazolyl-3(2H)one-1,1-dioxide)} ethyl 2,6-dimethyl-5-ethoxycarbonyl-4-methyl-1,4-dihydropyridine-3-carboxylate], the inhibition at 100 µM in test [1] was found to be 12%; in test [2] it was 84%; in test [4] it was 80%. In addition, the Protection % in test [3] (30 mg/kg intraperitoneal) is recorded as 50%; in test [3] (60 mg/kg intraperitoneal), 70%.

For `CCOC(=O)C1=C(C)NC(C)=C(C(=O)OCN2C(=O)c3ccccc3S2(=O)=O)C1C` (centres unmarked) [Example 5, {N-(1,2-benzisothiazolyl-3(2H)one-1,1-dioxide)} methyl 2,6-dimethyl-5-ethoxycarbonyl-4-methyl-1,4-dihydropyridine-3-carboxylate], the inhibition at 100 µM in test [1] worked out at 20%; in test [2] it was 55%; in test [4], 51%. Further, the Protection % in test [3] (30 mg/kg intraperitoneal) was 30%; in test [3] (60 mg/kg intraperitoneal), 50%.

These data come from US4782069A, “1,4-Dihydropiridines and their use as antithrombotic drugs” (Alter, S.A., priority 1986, dated 1988).
